This is an account of results in article PMC3581588, “Foam Cell Specific LXRα Ligand” (PLoS ONE, 2013).

Like-named read-outs stand apart in the source and are kept apart here.

In experiment [1] the target is T1, LXRα ligand binding domain (Homo sapiens, UniProt Q13133).
T1 construct: expressed in transfected cells; host or cells: HEK-293
T1 sequence (Q13133 164-447): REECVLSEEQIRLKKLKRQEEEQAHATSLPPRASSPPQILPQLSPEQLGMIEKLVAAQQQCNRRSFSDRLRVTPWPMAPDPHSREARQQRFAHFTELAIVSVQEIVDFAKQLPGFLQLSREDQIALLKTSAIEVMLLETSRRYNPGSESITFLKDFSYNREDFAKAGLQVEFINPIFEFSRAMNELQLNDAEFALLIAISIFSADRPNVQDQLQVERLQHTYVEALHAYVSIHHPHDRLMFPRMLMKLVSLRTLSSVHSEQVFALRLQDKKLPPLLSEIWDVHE
The experiment in a line: dual luciferase reporter gene assay, LXRα-LBD/GAL4-DBD in HEK-293 cells. It is filed as cell-based. On the procedure:
(§1) The ligand binding domain (LBD) of LXRα (amino acids 164 to 447) or LXRβ (amino acids 154 to 461) was cloned into pBIND [Renilla/Amp] vector (Promega). Selection and amplification were performed in E. coli cells. Purification of the plasmids was performed with a plasmid purification kit (Qiagen). For transfection HEK-293 cells were plated in 96-well plates (TPP) at a density of 3.5×10^4 cells/well for 24 h. To investigate the ligand binding on LXRα ligand binding domain, 0.04 ng of renilla luciferase coding plasmide pGL4.75 (Promega), 0.04 ng of LXRα-LBD/GAL4-DBD plasmide and 80 ng of firefly luciferase coding plasmide pGL4.31 (Promega) were used in a total volume of 200 µL for each well. For LXRβ binding assay 40 ng of LXRβ-LBD/GAL4-DBD plasmide were applied in each transfection mix. Transfection was carried out for 4 h with Lipofectamine 2000 Transfection Reagent (Invitrogen) in Opti-MEM medium (Invitrogen). Ligand treatment was performed at different concentrations for 24 h. For lysis and detection dual-luciferase reporter gene assay system (Promega) and POLARstar Omega (BMG LABTECH) were used.

Experiment [2] deals with THP1-derived foam cells. As to the kind of experiment: cholesterol and triglyceride content in foam cells. It is filed as cell-based, human. To be noted: 10 µM, 48 h, vs. DMSO. As to the method:
(§2) We used the human THP1 cell line, which is widely applied as a macrophage and foam cell model with similar properties as primary cells. […] For generating macrophages differentiation was induced by 10^−8 M Phorbol 12-myristate 13-acetate (PMA) (Sigma-Aldrich) for 48 h. Ligand treatment of macrophages was performed for further 24 h. To induce foam cell formation macrophages were treated for additional 48 h with 100 µg/mL modified human oxidized low density lipoprotein (oxLDL) obtained from Source BioScience (RP-048). Ligand treatment was performed simultaneously with foam cell formation. Cholesterol loading and treatment was controlled with Oil Red O staining (Alfa Aeser). To investigate ligand induced effects on cell proliferation of THP-1 macrophages CellTiter-Glo Luminescent Cell Viability Assay (Promega) was utilized.
(§3) THP-1 monocytes were plated out into 24-well plates (Nunc) at a density of 2×10^5 cells/well. After differentiation and treatment cells were lysed with 100 µL lysis buffer (PBS, 0.25 M NaCl, 1% Triton X-100). Total and free cholesterol were determined using the colorimetric enzymatic Amplex Red Cholesterol Assay Kit (Invitrogen). Triglycerides were quantified by Triglyceride Assay Kit (BioVision). For normalisation protein content was determined with Pierce 660 nm Protein Assay Reagent (Thermo Scientific).

The test system of experiment [3] is THP-1 macrophages. The experiment in a line: gene expression of LXRα target genes (qPCR) in THP-1 macrophages. It is filed as cell-based, human. As to conditions: for expression of LXRα target genes (LXRα, SREBF1, ABCA1, APOE): 10 µM, 24 h. As to the method:
as §2
(§4) Total RNA isolation and purification was performed by using the RNeasy Mini Kit (QIAGEN) and RNase-Free DNase Set (QIAGEN). cDNA was generated by reverse transcription using the High Capacity cDNA Reverse Transcription Kit (Life Technologies). Gene expression was quantified using the SYBR Green PCR Master Mix (Life Technologies) and ABI 7900HT Fast Real Time PCR System (Life Technologies). In each reaction 0.8 ng/µL cDNA and 0.2 µM primers were used. Gene expression was calculated with the ΔΔCt-method. ß-Actin was used for normalisation.
In general terms: Real-time PCR tracks product formation cycle by cycle.

Experiment [4] has as its target T2, LXRβ ligand binding domain (Homo sapiens, UniProt P55055).
T2 construct: expressed in transfected cells; host or cells: HEK-293
T2 sequence (P55055 154-460 limits assumed): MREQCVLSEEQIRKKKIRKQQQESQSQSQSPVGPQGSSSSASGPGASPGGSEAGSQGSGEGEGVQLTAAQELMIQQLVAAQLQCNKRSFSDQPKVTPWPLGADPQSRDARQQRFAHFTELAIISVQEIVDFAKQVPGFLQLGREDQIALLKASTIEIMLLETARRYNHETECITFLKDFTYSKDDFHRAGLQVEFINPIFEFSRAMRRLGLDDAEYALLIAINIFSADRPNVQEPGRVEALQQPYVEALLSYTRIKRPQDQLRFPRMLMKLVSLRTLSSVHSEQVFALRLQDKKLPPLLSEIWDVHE
As to the kind of experiment: dual luciferase reporter gene assay, LXRβ-LBD/GAL4-DBD in HEK-293 cells. It is filed as cell-based. On the procedure: as §1
On the technique in general: A reporter such as luciferase makes a cellular process visible.

In experiment [5] the test system is THP1-derived foam cells. The experiment in a line: gene expression of LXRα target genes (qPCR) in oxLDL-loaded foam cells. As to conditions: 10 µM. Format: cell-based, human. On the procedure:
as §2, §4

Experiment [6] relates to THP1-derived foam cells. As to the kind of experiment: Western blot of LXRα and APOE in foam cells. As to conditions: Western blot densitometry. It is filed as cell-based, human. On the procedure: as §2
Whole cell extracts were harvested from three biological replicates and denaturized for SDS-PAGE (NuPAGE Novex 4–12% Bis-Tris Gels). Proteins were blotted on nitrocellulose Hybond ECL membrane and incubated with strictly validated published antibodies against LXRα (Abcam, ab 41902), APOE (Abcam ab1906), and as housekeeping protein control β-Actin (Santa Cruz Biotechnology, sc-47778, C4). […] This tool measures quantitatively the optical density and provides more accurate data than simple eye-observations. […]
(In general: A western blot detects proteins with antibodies after separation by electrophoresis.)

The subject of experiment [7] is THP-1 macrophages. As to the kind of experiment: triglyceride content in macrophages. It is filed as cell-based, human. To be noted: 10 µM, 48 h, vs. DMSO. As to the method: as §2, §3
The mark [8] stands for this setting: +DMSO, transcriptional activation vs. T09.

In turn, `CC(C)CC[C@@H](O)[C@@H](C)[C@H]1CC[C@H]2[C@@H]3CC=C4C[C@@H](O)CC[C@]4(C)[C@H]3CC[C@]12C` [22-R-Hydroxycholesterol, reference compound] came in with an EC50 in experiment [1] of 13300 nM. In addition, the Efficacy in experiment [1] (setting [8]) is on record as 4%.
Take `C(=C\c1ccc(OCC2CO2)cc1)/c1ccccc1` (stereo not drawn) [STX4, 2-[[4-[(E)-styryl]phenoxy]methyl]oxirane]: the “total and esterified cholesterol content” value in experiment [2] is “significant reduction”. In experiment [2], the triglyceride levels entry is given as “not increased”. Besides, the “expression of LXRα target genes (LXRα, SREBF1, ABCA1, APOE)” value in experiment [3] is listed as “not”; in experiment [5] it was “potent target gene expression similar to T09”. Further, the “ABCA1 expression with STX4 in the presence of T09” value in experiment [3] (presence of 1 µM T09) is reported as “additive effects”. In addition, the “Transcriptional activation of LXRβ” value in experiment [4] was “does not activate”. The “protein expression levels of LXRα target genes (LXRα, APOE)” value in experiment [6] is “increased protein expression levels”. For the same molecule, the figures for the Efficacy in experiment [1] (+200 nM T0901317 (additive)) and in experiment [1] (setting [8]) were 47% and 6%, respectively. In addition, the concentration for a half-maximal effect (EC50) in experiment [1] (+200 nM T0901317 (additive), read-out: EC50) stood at 28 nM; in experiment [1] (+DMSO, LXRα reporter gene, HEK-293, 24 h, read-out: EC50), 35 nM. The triglyceride level result in experiment [7] is “stayed rather unchanged”.
Take `O=S(=O)(c1ccccc1)N(CC(F)(F)F)c1ccc(C(O)(C(F)(F)F)C(F)(F)F)cc1` [T0901317, reference compound]: in experiment [2], the “total and esterified cholesterol content” value is “significant reduction”; the triglyceride levels result was “increased triglyceride levels”. The “expression of LXRα target genes (LXRα, SREBF1, ABCA1, APOE)” value in experiment [3] is “increased expression”. The triglyceride level result in experiment [7] is given as “stayed rather unchanged”.

Broadly, the EC50 is the concentration that produces a half-maximal response.
